The text below walks through data of ChEMBL document CHEMBL1149403, “Design, synthesis, and anti-Helicobacter pylori activity of erythromycin A (E)-9-oxime ether derivatives” (2006).

Values after ≈ are worked out from the molar mass of the structure shown.

The assay relates to Helicobacter pylori. In words: Inhibitory activity against Helicobacter pylori NCTC-10638. The class given is functional.
With `CC[C@H]1OC(=O)[C@H](C)C(=O)[C@H](C)C(O[C@@H]2O[C@H](C)C[C@H](N(C)C)[C@@H]2O)[C@](C)(OC)C[C@@H](C)/C(=N\OCOc2ccccc2OC)[C@H](C)[C@@H](O)[C@]1(C)O` (some centres not stated), the minimum inhibitory concentration (MIC) turned out to be 0.04 µg/mL (≈ 0.0541 µM).

Take `CC[C@H]1OC(=O)[C@H](C)C(O[C@H]2C[C@](C)(OC)[C@@H](O)[C@@H](C)O2)[C@H](C)C(O[C@@H]2O[C@H](C)C[C@H](N(C)C)[C@@H]2O)[C@](C)(O)C[C@@H](C)/C(=N\OCOc2ccccc2OC)[C@H](C)[C@@H](O)[C@]1(C)O` (some centres not stated): the MIC amounted to 0.03 µg/mL (≈ 0.0339 µM).

`CC[C@H]1OC(=O)[C@H](C)C(=O)[C@H](C)C(O[C@@H]2O[C@H](C)C[C@H](N(C)C)[C@@H]2O)[C@](C)(OC)C[C@@H](C)/C(=N\OCOc2ccc(OC)cc2)[C@H](C)[C@@H](O)[C@]1(C)O` (some centres not stated) showed an MIC of 0.02 µg/mL (≈ 0.0271 µM).

As to `CC[C@H]1OC(=O)[C@H](C)C(O[C@H]2C[C@](C)(OC)[C@@H](O)[C@@H](C)O2)[C@H](C)C(O[C@@H]2O[C@H](C)C[C@H](N(C)C)[C@@H]2O)[C@](C)(OC)C[C@@H](C)/C(=N\OCOc2ccccc2OC)[C@H](C)[C@@H](O)[C@]1(C)O` (some centres not stated), the MIC worked out at 0.02 µg/mL (≈ 0.0222 µM).

For the molecule `CC[C@H]1OC(=O)[C@H](C)C(O[C@H]2C[C@](C)(OC)[C@@H](O)[C@@H](C)O2)[C@H](C)C(O[C@@H]2O[C@H](C)C[C@H](N(C)C)[C@@H]2O)[C@](C)(O)C[C@@H](C)/C(=N\OCOc2ccc(OC)cc2)[C@H](C)[C@@H](O)[C@]1(C)O` (some centres not stated), the MIC was found to be 0.02 µg/mL (≈ 0.0226 µM).

Take `CC[C@H]1OC(=O)[C@H](C)C(O[C@H]2C[C@](C)(OC)[C@@H](O)[C@@H](C)O2)[C@H](C)C(O[C@@H]2O[C@H](C)C[C@H](N(C)C)[C@@H]2O)[C@](C)(OC)C[C@@H](C)/C(=N\OCOc2ccc(OC)cc2)[C@H](C)[C@@H](O)[C@]1(C)O` (some centres not stated): the minimum inhibitory concentration (MIC) was found to be 0.03 µg/mL (≈ 0.0334 µM).

Turning to `CC[C@H]1OC(=O)[C@H](C)[C@@H](O[C@H]2C[C@@](C)(OC)[C@@H](O)[C@H](C)O2)[C@H](C)[C@@H](O[C@@H]2O[C@H](C)C[C@H](N(C)C)[C@H]2O)[C@](C)(OC)C[C@@H](C)C(=O)[C@H](C)[C@@H](O)[C@]1(C)O` [CLARITHROMYCIN], the MIC worked out at 0.02 µg/mL (≈ 0.0267 µM).
